# From PubChem BioAssay (NCI)
#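 A five-concentration, 48-hour dose response in 96-well plates underlies each endpoint, interpolated linearly between surrounding concentrations. TGI: concentration producing complete growth inhibition.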 Where a SMILES comes first, the peptide text is derived from it. [ ]: non-standard residue; d: D form. The star is where a group is joined. mTyr = N[CH](Cc1cccc(O)c1)C(=O)O; Cbz = O=C(OCc1ccccc1)*; OBn = c1ccc(CO*)cc1
# Tested on: A549 NSCLC
# Experiment: growth of human tumour cells (NCI), 48 h
row,Structure (SMILES),TGI [µM]
1,COc1cc2c(cc1OC)C1(c3ccc(Cl)cc3)ON=C(c3ccccc3)N1CS2 (stereo unspecified),> 100
2,O=C(Cc1ccccc1)NN1C(=O)C(Cl)C1c1ccccc1O (stereo unspecified),> 100
3,CC(C)(C)c1cc(C2COC(c3cc(C(C)(C)C)c(O)c(C(C)(C)C)c3)CO2)cc(C(C)(C)C)c1O (stereo unspecified),> 100
4,Cc1ccc(CC(C)N)cc1 (stereo unspecified),> 100
5,Cc1cc(NCCCCCCCNc2cc(C)nc3cc([N+](=O)[O-])ccc23)c2ccc([N+](=O)[O-])cc2n1,9.41
6,O=C(Nc1cccc(F)c1)c1cc2ccc(O)cc2oc1=Nc1ccccc1F,13.8
7,Nc1ccc(C(=O)NN2C(=O)C(Cl)C2c2ccccc2)cc1 (stereo unspecified),> 100
8,Cc1ccc(N=Nc2c(O)c(C(=O)Nc3ccccc3)cc3ccccc23)c([N+](=O)[O-])c1,> 100
9,CNc1ccc(N)cc1C(=O)N1CCC[C@H]1CO,> 100
10,CCC1(COC(NC(=O)c2ccccc2)(C(F)(F)F)C(F)(F)F)COC1,> 100
11,COC(=O)c1cnn2c1n[n+]([O-])c1ccccc12,> 100
12,COC(=O)C(Cc1cccc(O)c1)NC(=O)C(CC(=O)OCc1ccccc1)NC(=O)OCc1ccccc1 (stereo unspecified) (Cbz-Asp(OBn)-[mTyr]-OMe; configuration not given here),> 100
13,N#C/C(=C\c1c[nH]c2ccccc12)C(=O)c1ccc(O)c(O)c1,98.7
14,CCCc1ccc(NCc2cc(OC)c(OC)c(OC)c2)cc1,> 100
15,CC(NC(C)(C)C)C(=O)c1cccc(Cl)c1 (stereo unspecified),> 100
16,COc1ccc(CSc2ccccc2Cn2cccc2)cc1OC,> 100
17,O=C1NC(=S)N(c2ccccc2)C1=O,> 100
18,COc1ccc(/C=C2\CN(C)C/C(=C\c3ccc(OC)c(OC)c3OC)C2=O)c(OC)c1OC,1.07
19,COc1cc(/C=C(/C#N)C(N)=O)ccc1O,> 100

# Tested on: MDA-MB-231 breast
# Experiment: growth of human tumour cells (NCI), 48 h
row,Structure (SMILES),TGI [µM]
1,CC(C)(C)c1cc(C2COC(c3cc(C(C)(C)C)c(O)c(C(C)(C)C)c3)CO2)cc(C(C)(C)C)c1O (stereo unspecified),> 100
2,Cc1cc(NCCCCCCCNc2cc(C)nc3cc([N+](=O)[O-])ccc23)c2ccc([N+](=O)[O-])cc2n1,6.58
3,Cc1ccc(N=Nc2c(O)c(C(=O)Nc3ccccc3)cc3ccccc23)c([N+](=O)[O-])c1,> 100
4,CNc1ccc(N)cc1C(=O)N1CCC[C@H]1CO,> 100
5,COC(=O)c1cnn2c1n[n+]([O-])c1ccccc12,> 100
6,COC(=O)C(Cc1cccc(O)c1)NC(=O)C(CC(=O)OCc1ccccc1)NC(=O)OCc1ccccc1 (stereo unspecified) (Cbz-Asp(OBn)-[mTyr]-OMe; configuration not given here),> 100
7,O=C1NC(=S)N(c2ccccc2)C1=O,> 100
8,COc1ccc(/C=C2\CN(C)C/C(=C\c3ccc(OC)c(OC)c3OC)C2=O)c(OC)c1OC,0.488

# Tested on: NCI-H460 lung
# Experiment: growth of human tumour cells (NCI), 48 h
row,Structure (SMILES),TGI [µM]
1,COc1cc2c(cc1OC)C1(c3ccc(Cl)cc3)ON=C(c3ccccc3)N1CS2 (stereo unspecified),> 100
2,O=C(Cc1ccccc1)NN1C(=O)C(Cl)C1c1ccccc1O (stereo unspecified),38.2
3,Cc1ccc(CC(C)N)cc1 (stereo unspecified),> 100
4,Cc1cc(NCCCCCCCNc2cc(C)nc3cc([N+](=O)[O-])ccc23)c2ccc([N+](=O)[O-])cc2n1,6.36
5,O=C(Nc1cccc(F)c1)c1cc2ccc(O)cc2oc1=Nc1ccccc1F,> 100
6,Nc1ccc(C(=O)NN2C(=O)C(Cl)C2c2ccccc2)cc1 (stereo unspecified),> 100
7,COC(=O)C(Cc1cccc(O)c1)NC(=O)C(CC(=O)OCc1ccccc1)NC(=O)OCc1ccccc1 (stereo unspecified) (Cbz-Asp(OBn)-[mTyr]-OMe; configuration not given here),35.6
8,N#C/C(=C\c1c[nH]c2ccccc12)C(=O)c1ccc(O)c(O)c1,> 100
9,CCCc1ccc(NCc2cc(OC)c(OC)c(OC)c2)cc1,> 100
10,CC(NC(C)(C)C)C(=O)c1cccc(Cl)c1 (stereo unspecified),> 100
11,COc1ccc(CSc2ccccc2Cn2cccc2)cc1OC,> 100
12,O=C1NC(=S)N(c2ccccc2)C1=O,> 100
13,COc1ccc(/C=C2\CN(C)C/C(=C\c3ccc(OC)c(OC)c3OC)C2=O)c(OC)c1OC,0.435
14,COc1cc(/C=C(/C#N)C(N)=O)ccc1O,> 100

# Tested on: NCI/ADR-RES ovarian
# Experiment: growth of human tumour cells (NCI), 48 h
row,Structure (SMILES),TGI [µM]
1,CC(C)(C)c1cc(C2COC(c3cc(C(C)(C)C)c(O)c(C(C)(C)C)c3)CO2)cc(C(C)(C)C)c1O (stereo unspecified),> 100
2,O=C(Nc1cccc(F)c1)c1cc2ccc(O)cc2oc1=Nc1ccccc1F,10.3
3,Cc1ccc(N=Nc2c(O)c(C(=O)Nc3ccccc3)cc3ccccc23)c([N+](=O)[O-])c1,> 100
4,CNc1ccc(N)cc1C(=O)N1CCC[C@H]1CO,> 100
5,CCC1(COC(NC(=O)c2ccccc2)(C(F)(F)F)C(F)(F)F)COC1,> 100
6,COC(=O)c1cnn2c1n[n+]([O-])c1ccccc12,> 100
7,N#C/C(=C\c1c[nH]c2ccccc12)C(=O)c1ccc(O)c(O)c1,70.1
8,COc1ccc(CSc2ccccc2Cn2cccc2)cc1OC,> 100
9,O=C1NC(=S)N(c2ccccc2)C1=O,> 100
10,COc1cc(/C=C(/C#N)C(N)=O)ccc1O,> 100

# Tested on: HCC-2998 colon
# Experiment: growth of human tumour cells (NCI), 48 h
row,Structure (SMILES),TGI [µM]
1,COc1cc2c(cc1OC)C1(c3ccc(Cl)cc3)ON=C(c3ccccc3)N1CS2 (stereo unspecified),> 100
2,O=C(Cc1ccccc1)NN1C(=O)C(Cl)C1c1ccccc1O (stereo unspecified),> 100
3,Cc1ccc(CC(C)N)cc1 (stereo unspecified),> 100
4,Cc1cc(NCCCCCCCNc2cc(C)nc3cc([N+](=O)[O-])ccc23)c2ccc([N+](=O)[O-])cc2n1,> 55.6
5,O=C(Nc1cccc(F)c1)c1cc2ccc(O)cc2oc1=Nc1ccccc1F,28.7
6,Nc1ccc(C(=O)NN2C(=O)C(Cl)C2c2ccccc2)cc1 (stereo unspecified),> 100
7,CCC1(COC(NC(=O)c2ccccc2)(C(F)(F)F)C(F)(F)F)COC1,> 100
8,COC(=O)C(Cc1cccc(O)c1)NC(=O)C(CC(=O)OCc1ccccc1)NC(=O)OCc1ccccc1 (stereo unspecified) (Cbz-Asp(OBn)-[mTyr]-OMe; configuration not given here),> 100
9,N#C/C(=C\c1c[nH]c2ccccc12)C(=O)c1ccc(O)c(O)c1,> 100
10,CC(NC(C)(C)C)C(=O)c1cccc(Cl)c1 (stereo unspecified),> 100
11,COc1ccc(CSc2ccccc2Cn2cccc2)cc1OC,> 100
12,O=C1NC(=S)N(c2ccccc2)C1=O,> 100
13,COc1ccc(/C=C2\CN(C)C/C(=C\c3ccc(OC)c(OC)c3OC)C2=O)c(OC)c1OC,0.335
14,COc1cc(/C=C(/C#N)C(N)=O)ccc1O,> 82.1

# Tested on: TK-10 renal
# Experiment: growth of human tumour cells (NCI), 48 h
row,Structure (SMILES),TGI [µM]
1,COc1cc2c(cc1OC)C1(c3ccc(Cl)cc3)ON=C(c3ccccc3)N1CS2 (stereo unspecified),> 100
2,O=C(Cc1ccccc1)NN1C(=O)C(Cl)C1c1ccccc1O (stereo unspecified),> 100
3,CC(C)(C)c1cc(C2COC(c3cc(C(C)(C)C)c(O)c(C(C)(C)C)c3)CO2)cc(C(C)(C)C)c1O (stereo unspecified),> 100
4,Cc1ccc(CC(C)N)cc1 (stereo unspecified),> 100
5,Cc1cc(NCCCCCCCNc2cc(C)nc3cc([N+](=O)[O-])ccc23)c2ccc([N+](=O)[O-])cc2n1,39
6,Nc1ccc(C(=O)NN2C(=O)C(Cl)C2c2ccccc2)cc1 (stereo unspecified),> 100
7,Cc1ccc(N=Nc2c(O)c(C(=O)Nc3ccccc3)cc3ccccc23)c([N+](=O)[O-])c1,> 100
8,CNc1ccc(N)cc1C(=O)N1CCC[C@H]1CO,> 100
9,CCC1(COC(NC(=O)c2ccccc2)(C(F)(F)F)C(F)(F)F)COC1,> 100
10,COC(=O)c1cnn2c1n[n+]([O-])c1ccccc12,> 100
11,COC(=O)C(Cc1cccc(O)c1)NC(=O)C(CC(=O)OCc1ccccc1)NC(=O)OCc1ccccc1 (stereo unspecified) (Cbz-Asp(OBn)-[mTyr]-OMe; configuration not given here),> 100
12,N#C/C(=C\c1c[nH]c2ccccc12)C(=O)c1ccc(O)c(O)c1,98.2
13,CCCc1ccc(NCc2cc(OC)c(OC)c(OC)c2)cc1,> 100
14,CC(NC(C)(C)C)C(=O)c1cccc(Cl)c1 (stereo unspecified),> 100
15,COc1ccc(CSc2ccccc2Cn2cccc2)cc1OC,> 100
16,O=C1NC(=S)N(c2ccccc2)C1=O,> 100
